ChEMBL document CHEMBL1201862, “PubChem BioAssay data set” (2004)
Values belong to the compound of their own block, whether it stands above or below them. Activity calls are given as the source filed them.

How the values were obtained:
[1] = target: Mitogen-activated protein kinase 10 (Homo sapiens, UniProt P53779); experiment: Dose response biochemical screening assay for inhibitors of c-Jun N-Terminal Kinase 3 (JNK3). [Related pubchem assays: 746 ]
cells [2] = format: functional, cell-based
[3] = Trypanosoma cruzi growth suppression in host cells – NIH3T3 host cells, beta-gal luminescence, confirmation (AID 2044); format: functional, cell-based;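 also: intracellular parasites grown in NIH/3T3 mouse fibroblasts as host cells; luminescent beta-galactosidase reporter signal from transgenic T. cruzi replicating inside host cells; inhibitors lower the luminescence signal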
[4] = general mammalian cell viability loss – activator set, cherry-pick, cytotoxicity control for miR-122 modulator project, dose response (AID 720690); format: functional, cell-based;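 also: HEK293T human cells scored for general mammalian cytotoxicity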
[5] = A2780 cell killing – plate reader, dry powder samples, cytotoxicity control, dose response (AID 743046); format: functional, cell-based
[6] = reduction of Shn3 3'UTR-driven luciferase in osteoblasts – cell-based, Clone20 osteoblasts, firefly luciferase, cherry-picked, dose response (AID 624132); format: functional;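 also: firefly luciferase luminescence from reporter carrying the Shn3 3'UTR in osteoblasts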
[7] = target: Heat shock protein HSP 90-alpha (Homo sapiens, UniProt P07900); format: functional, organism-based
[8] = PAX5 cellular inhibition readout – cell-based, plate reader, dry powder samples, selectivity assay for PAX8 inhibitor project, dose response (AID 743047); format: functional;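 also: HEK293 cells carrying a Pax5 driven CD19 promoter luciferase reporter; potency of inhibitors that lower reporter luminescence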
cells [9] = format: functional, cell-based; remark: listed apart in the source
[10] = PAX8-dependent cell viability loss – plate reader, dry powder, dose response (AID 743049); format: functional, cell-based
[11] = non-specific 3'UTR reporter inhibition in Clone20-Shn3RL – cell-based, Renilla luciferase, cherry-picked, counter-screen for Shn3 inhibitor project, dose response (AID 624133); format: functional
[12] = general mammalian cell viability loss – inhibitor set, cherry-pick, set 2, cytotoxicity control for miR-122 modulator project, dose response (AID 720697); format: functional, cell-based
[13] = COV434 cell viability loss – plate reader, dry powder, SA7, cytotoxicity control for PAX8 inhibitor project, dose response (AID 743145); format: functional, cell-based
Paired box protein Pax-8 = Paired box protein Pax-8 (Homo sapiens, UniProt Q06710); experiment: PAX8 transcriptional activity inhibition in RMG-I – RMG-I cells, luciferase, cherry-pick, dose response (AID 687027); format: functional, cell-based;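 also: luciferase reporter driven by Pax8 target thyroperoxidase promoter measured by SteadyGlo luminescence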
Chain of Paired box protein Pax-8 (Q06710 whole entry): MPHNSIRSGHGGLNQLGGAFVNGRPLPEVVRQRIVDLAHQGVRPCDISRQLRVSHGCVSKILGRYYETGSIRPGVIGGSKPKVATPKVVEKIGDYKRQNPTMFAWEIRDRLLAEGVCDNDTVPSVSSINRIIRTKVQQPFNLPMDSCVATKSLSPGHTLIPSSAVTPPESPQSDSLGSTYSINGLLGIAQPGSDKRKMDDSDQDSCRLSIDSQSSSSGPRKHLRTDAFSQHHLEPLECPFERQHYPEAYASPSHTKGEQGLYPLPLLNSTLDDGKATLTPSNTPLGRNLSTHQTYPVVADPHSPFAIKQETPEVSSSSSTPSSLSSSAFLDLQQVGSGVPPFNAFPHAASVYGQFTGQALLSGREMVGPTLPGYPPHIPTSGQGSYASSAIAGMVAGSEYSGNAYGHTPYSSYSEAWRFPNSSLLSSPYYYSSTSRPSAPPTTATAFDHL

[14] = IGROV1 cell killing – plate reader, dry powder samples, PAX8 inhibitor project, dose response (AID 743043); format: functional, cell-based; conditions: IGROV-1
[15] = loss of viability in HepG2 cells – cell-based, CellTiter-Glo, cherry-picked, cytotoxicity control for Shn3 inhibitor project, dose response (AID 624134); format: functional
[16] = OVCAR-3 cell viability loss – plate reader, dry powder samples, PAX8 inhibitor project, dose response (AID 743044); format: functional, cell-based
[17] = COV362 cell viability loss – plate reader, dry powder, SA12, cytotoxicity control for PAX8 inhibitor project, dose response (AID 743144); format: functional, cell-based
[18] = HGIII-sPLA2 enzyme inhibition potency – biochemical, QFRET, IC50, dose response (AID 743457);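 also: green fluorescence rise as the enzyme cleaves BODIPY PC-A2 in liposomes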
INS1 = experiment: INS-1E survival protection against cytokine death – cell-based, luminescence, retest, dose response (AID 449756); format: functional; conditions: Rattus norvegicus, INS1;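 also: cell death triggered by IL-1 beta plus TNF-alpha plus IFN-gamma mixture; protective hits raise ATP signal compared with cytokine alone wells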
[19] = OVCAR4 cell viability loss – plate reader, dry powder, SA11, cytotoxicity control for PAX8 inhibitor project, dose response (AID 743150); format: functional, cell-based; conditions: OVCAR-4
[20] = inhibitors acting on PAX2 in cells – cell-based, plate reader, dry powder samples, selectivity assay for PAX8 inhibitor project, dose response (AID 743048); format: functional;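 also: HEK293 cells carrying a WT1 promoter luciferase reporter driven by expressed Pax2; potency is for inhibition of Pax2 driven reporter signal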
[21] = OV-90 cell viability loss – plate reader, dry powder, SA8, PAX8 inhibitor project, dose response (AID 743149); format: functional, cell-based
[22] = NIH3T3 cell viability loss – ATP luminescence, mouse fibroblasts, counter-screen, dose response (AID 2010); format: functional, cell-based;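 also: cells exposed to compound for about 90 hours before reading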
[23] = toxicity toward immortalized ovarian surface epithelium – cell-based, plate reader, dry powder samples, cytotoxicity control for PAX8 inhibitor project, dose response (AID 743045); format: functional
[24] = target: T1, Alkaline phosphatase, tissue-nonspecific isozyme (Homo sapiens, UniProt P05186); experiment: TNAP enzyme inhibition by screening hits, dose response, selectivity assay for mouse IAP inhibitor project, biochemical, human TNAP, uHTS hits (AID 488906); format: functional
T1 sequence (P05186 whole entry): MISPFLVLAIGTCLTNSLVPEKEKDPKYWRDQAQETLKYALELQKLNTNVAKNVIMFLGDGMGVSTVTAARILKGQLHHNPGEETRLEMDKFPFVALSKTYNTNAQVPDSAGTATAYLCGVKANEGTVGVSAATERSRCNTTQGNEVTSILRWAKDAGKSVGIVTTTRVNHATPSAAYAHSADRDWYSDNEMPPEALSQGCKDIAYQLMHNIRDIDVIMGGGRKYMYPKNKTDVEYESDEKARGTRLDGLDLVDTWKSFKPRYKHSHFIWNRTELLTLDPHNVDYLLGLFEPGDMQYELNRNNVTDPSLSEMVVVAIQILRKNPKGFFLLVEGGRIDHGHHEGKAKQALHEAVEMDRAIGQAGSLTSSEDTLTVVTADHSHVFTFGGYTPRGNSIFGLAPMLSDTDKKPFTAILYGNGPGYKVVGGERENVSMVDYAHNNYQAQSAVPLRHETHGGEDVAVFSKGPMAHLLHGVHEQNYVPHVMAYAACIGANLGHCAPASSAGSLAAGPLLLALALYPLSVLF

[25] = target: Intestinal-type alkaline phosphatase (Homo sapiens, UniProt P09923); experiment: inhibition of human intestinal alkaline phosphatase – biochemical, dose response (AID 488876); format: functional
Chain of Intestinal-type alkaline phosphatase (Homo sapiens, UniProt P09923) (P09923 whole entry): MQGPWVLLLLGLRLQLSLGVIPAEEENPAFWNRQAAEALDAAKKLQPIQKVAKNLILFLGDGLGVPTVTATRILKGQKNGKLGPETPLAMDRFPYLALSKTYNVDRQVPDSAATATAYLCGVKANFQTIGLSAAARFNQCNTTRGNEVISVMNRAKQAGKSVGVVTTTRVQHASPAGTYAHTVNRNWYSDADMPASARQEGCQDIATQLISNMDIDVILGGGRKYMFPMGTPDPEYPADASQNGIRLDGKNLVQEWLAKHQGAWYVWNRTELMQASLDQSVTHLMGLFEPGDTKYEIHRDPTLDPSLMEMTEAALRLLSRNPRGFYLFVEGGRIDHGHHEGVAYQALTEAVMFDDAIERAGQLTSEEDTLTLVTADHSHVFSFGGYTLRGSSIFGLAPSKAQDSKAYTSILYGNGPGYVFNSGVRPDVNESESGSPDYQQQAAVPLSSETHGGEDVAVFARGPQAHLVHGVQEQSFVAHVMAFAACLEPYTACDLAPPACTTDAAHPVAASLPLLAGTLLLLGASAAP

[26] = target: RNA-editing ligase 1, mitochondrial (Trypanosoma brucei brucei, UniProt P86926); experiment: inhibition of trypanosome RNA editing ligase – biochemical, fluorescence, Trypanosoma brucei, dose response (AID 1117295); format: functional
Chain of RNA-editing ligase 1, mitochondrial (P86926 whole entry): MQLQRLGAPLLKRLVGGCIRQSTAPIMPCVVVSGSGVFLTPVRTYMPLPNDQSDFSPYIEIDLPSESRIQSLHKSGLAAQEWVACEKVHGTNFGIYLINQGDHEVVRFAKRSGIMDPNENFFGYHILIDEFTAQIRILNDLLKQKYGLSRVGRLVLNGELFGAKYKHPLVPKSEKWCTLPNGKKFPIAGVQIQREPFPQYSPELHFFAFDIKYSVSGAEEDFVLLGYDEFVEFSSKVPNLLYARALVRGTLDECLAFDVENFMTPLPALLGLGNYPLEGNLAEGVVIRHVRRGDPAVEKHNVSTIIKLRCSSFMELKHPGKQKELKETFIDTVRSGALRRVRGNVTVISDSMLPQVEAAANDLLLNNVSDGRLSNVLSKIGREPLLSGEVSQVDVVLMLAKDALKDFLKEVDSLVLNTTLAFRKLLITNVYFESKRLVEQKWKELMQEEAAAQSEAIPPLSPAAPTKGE

[27] = target: Intestinal-type alkaline phosphatase (Mus musculus, UniProt P24822); experiment: PubChem AID 488785; format: functional
[28] = target: T2, Neuropeptides B/W receptor type 1 (Homo sapiens, UniProt P48145); experiment: Fluorescence-based dose response cell-based high throughput screening assay to identify antagonists of the G-protein coupled receptor 7 (GPR7). [Related pubchem assays: 1952 (Screening assay (GPR7 antagonists).), 1880 (Summary AID.)]; format: functional
T2 sequence (P48145 whole entry): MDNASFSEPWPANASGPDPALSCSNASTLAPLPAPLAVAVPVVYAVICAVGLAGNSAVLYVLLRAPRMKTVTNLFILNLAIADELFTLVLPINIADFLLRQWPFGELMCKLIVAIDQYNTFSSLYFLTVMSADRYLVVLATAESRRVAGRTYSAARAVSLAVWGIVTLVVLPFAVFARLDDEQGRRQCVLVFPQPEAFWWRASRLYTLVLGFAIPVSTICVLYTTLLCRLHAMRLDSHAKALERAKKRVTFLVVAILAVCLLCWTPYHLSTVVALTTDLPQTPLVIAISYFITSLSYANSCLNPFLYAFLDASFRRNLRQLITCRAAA

[29] = target: Melanin-concentrating hormone receptor 1 (Homo sapiens, UniProt Q99705); experiment: Fluorescence-based counterscreen for antagonists of the G-protein coupled receptor 7 (GPR7): cell-based high throughput dose response assay to identify antagonists of the melanin-concentrating hormone receptor 1 (MCHR1).; format: functional
Chain of Melanin-concentrating hormone receptor 1 (Q99705 whole entry): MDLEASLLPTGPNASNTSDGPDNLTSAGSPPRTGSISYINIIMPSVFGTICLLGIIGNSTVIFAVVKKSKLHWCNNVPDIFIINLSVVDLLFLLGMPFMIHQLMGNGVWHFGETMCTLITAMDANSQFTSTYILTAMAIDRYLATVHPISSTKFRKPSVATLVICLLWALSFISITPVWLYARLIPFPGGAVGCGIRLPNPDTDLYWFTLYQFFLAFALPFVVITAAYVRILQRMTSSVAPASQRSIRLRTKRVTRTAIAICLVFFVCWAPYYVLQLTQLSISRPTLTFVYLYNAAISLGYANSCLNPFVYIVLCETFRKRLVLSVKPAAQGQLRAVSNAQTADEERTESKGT

[30] = target: Sphingosine 1-phosphate receptor 2 (Homo sapiens, UniProt O95136); experiment: Dose Response Cell Based Assay for Agonists of the S1P2 Receptor. [Related pubchem assays: 729, 736, 843 ]; format: functional
Chain of Sphingosine 1-phosphate receptor 2 (O95136 whole entry): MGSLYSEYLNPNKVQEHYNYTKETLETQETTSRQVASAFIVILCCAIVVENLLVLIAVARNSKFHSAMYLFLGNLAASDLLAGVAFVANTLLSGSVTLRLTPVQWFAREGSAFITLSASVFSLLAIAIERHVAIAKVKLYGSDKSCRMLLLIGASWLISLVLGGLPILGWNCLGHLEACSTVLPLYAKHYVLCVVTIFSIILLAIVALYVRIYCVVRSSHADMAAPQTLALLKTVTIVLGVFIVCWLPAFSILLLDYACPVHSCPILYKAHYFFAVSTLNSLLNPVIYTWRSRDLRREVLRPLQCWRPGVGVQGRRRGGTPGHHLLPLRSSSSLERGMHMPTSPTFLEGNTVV

[31] = target: T3, Low molecular weight phosphotyrosine protein phosphatase (Homo sapiens, UniProt P24666); experiment: inhibition of LMPTP-A enzymatic activity – biochemical, OMFP substrate, fluorescence intensity, set 2, dose response (AID 743307); format: functional
T3 sequence (P24666 whole entry): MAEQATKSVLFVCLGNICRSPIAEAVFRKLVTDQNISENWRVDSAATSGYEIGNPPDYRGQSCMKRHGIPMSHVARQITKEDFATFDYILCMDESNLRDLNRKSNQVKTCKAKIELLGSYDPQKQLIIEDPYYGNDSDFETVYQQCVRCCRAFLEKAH

[32] = target: T3, Low molecular weight phosphotyrosine protein phosphatase; experiment: inhibition of human LMPTP enzyme activity – biochemical, absorbance, pNPP substrate, LMPTP-A isoform, set 2, orthogonal assay, dose response (AID 743308); format: functional
[33] = viability loss in HepG2 hepatoma cells – cell-based, ATP luminescence, dry powder, set 2, cytotoxicity control, dose response (AID 743129); format: functional
[34] = viability loss in A549 lung cancer cells – cell-based, CellTiter-Glo luminescence, dry powder, set 5, cytotoxicity control, dose response (AID 743158); format: functional
[35] = Plasmodium falciparum Dd2 Sybr green parasite growth Measured in Cell-Based and Microorganism Combination System Using Plate Reader - 2153-01_Inhibitor_Dose_DryPowder_Activity_Set3.; format: functional
[36] = P. falciparum Dd2 growth inhibitors, dose response, SYBR Green, cherry-picked samples (AID 1159567); format: functional, cell-based
[37] = growth inhibition of yeast DHODH-expressing 3D7 parasites – SYBR Green, dry powder samples, dose response (AID 1159570); format: functional, cell-based;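 also: parasite growth measured after 72 hours of compound exposure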
[38] = Dd2 malaria parasite growth inhibition potency – SYBR Green, dry powder samples, dose response (AID 1159566); format: functional, cell-based;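 also: potency for growth inhibition with lower SYBR green DNA signal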
[39] = growth inhibition of PfATP4-mutant resistant parasites – NITD609-resistant line, SYBR Green, dry powder, dose response (AID 1159571); format: functional, cell-based;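 also: parasites synchronized at ring stage by sorbitol before testing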
[40] = toxicity to human HepG2 hepatoma cells – cell-based, plate reader, dry powder samples, cytotoxicity control, dose response (AID 1159569); format: functional;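 also: inhibitor potency with signal falling toward the positive control level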
[41] = Dd2 parasite growth inhibition in erythrocytes – SYBR Green, dry powder samples, set 9, dose response (AID 1159568); format: functional, cell-based
Phospholipase D1 = Phospholipase D1 (Homo sapiens, UniProt Q13393); experiment: PLD1 Cellular Concentration Response Study.; format: functional
Chain of Phospholipase D1 (Q13393 whole entry): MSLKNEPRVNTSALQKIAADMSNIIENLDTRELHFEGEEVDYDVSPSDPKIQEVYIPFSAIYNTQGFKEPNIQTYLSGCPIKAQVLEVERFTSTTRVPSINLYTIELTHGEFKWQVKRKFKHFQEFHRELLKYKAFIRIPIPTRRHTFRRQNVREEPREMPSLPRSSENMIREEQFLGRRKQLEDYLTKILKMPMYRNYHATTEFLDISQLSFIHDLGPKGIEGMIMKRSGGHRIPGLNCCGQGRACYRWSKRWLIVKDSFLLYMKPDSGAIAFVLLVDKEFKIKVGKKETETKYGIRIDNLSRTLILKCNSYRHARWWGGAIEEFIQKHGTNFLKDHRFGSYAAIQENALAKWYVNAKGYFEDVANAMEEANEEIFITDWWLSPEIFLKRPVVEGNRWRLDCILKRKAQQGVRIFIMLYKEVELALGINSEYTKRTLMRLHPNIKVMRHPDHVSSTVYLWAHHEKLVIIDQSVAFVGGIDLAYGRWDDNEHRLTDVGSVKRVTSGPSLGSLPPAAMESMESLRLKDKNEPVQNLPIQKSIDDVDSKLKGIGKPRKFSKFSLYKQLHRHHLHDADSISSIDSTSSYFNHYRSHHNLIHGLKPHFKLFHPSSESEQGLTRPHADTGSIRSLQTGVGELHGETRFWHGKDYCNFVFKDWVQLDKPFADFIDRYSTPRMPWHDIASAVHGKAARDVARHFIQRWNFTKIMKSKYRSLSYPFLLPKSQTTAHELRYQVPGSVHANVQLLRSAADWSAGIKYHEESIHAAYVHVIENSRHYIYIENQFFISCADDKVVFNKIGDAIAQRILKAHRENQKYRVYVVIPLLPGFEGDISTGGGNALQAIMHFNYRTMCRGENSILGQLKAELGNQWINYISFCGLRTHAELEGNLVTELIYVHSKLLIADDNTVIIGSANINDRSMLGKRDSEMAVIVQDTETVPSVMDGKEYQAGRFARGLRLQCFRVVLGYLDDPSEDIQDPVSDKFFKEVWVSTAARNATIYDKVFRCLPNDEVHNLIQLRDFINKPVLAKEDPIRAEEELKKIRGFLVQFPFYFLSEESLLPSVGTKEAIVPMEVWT

Phospholipase D2 = Phospholipase D2 (Homo sapiens, UniProt O14939); experiment: PLD2 Cellular Concentration Response Study.; format: functional
Chain of Phospholipase D2 (O14939 whole entry): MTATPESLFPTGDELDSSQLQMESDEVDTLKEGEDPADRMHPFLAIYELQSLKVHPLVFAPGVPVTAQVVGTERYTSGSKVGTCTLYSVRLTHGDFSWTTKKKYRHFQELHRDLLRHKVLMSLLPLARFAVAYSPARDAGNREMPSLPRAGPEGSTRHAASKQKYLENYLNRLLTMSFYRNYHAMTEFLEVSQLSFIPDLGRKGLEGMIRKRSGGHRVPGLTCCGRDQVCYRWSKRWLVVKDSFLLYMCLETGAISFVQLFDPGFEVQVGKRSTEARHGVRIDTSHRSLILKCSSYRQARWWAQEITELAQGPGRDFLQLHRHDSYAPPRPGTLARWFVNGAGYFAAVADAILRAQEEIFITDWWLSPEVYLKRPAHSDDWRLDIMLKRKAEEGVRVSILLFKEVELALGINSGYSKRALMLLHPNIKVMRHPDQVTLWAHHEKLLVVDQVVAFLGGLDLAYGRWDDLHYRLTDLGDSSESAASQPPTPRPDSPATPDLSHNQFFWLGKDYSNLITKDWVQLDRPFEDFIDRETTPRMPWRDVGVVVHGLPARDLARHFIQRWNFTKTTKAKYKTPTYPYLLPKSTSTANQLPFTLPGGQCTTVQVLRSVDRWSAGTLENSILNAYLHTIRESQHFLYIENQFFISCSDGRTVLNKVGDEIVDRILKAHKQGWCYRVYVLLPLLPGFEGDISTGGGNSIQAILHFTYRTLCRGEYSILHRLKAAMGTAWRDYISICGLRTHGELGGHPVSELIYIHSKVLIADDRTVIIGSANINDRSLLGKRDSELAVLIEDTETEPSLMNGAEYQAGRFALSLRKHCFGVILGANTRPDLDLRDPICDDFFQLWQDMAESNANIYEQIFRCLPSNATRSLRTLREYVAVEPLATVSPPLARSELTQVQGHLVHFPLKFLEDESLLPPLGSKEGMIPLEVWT

[42] = IC50 of insulin release inhibition, rat insulinoma INS-1E line, 5 mM glucose, cell-based (AID 1117331); format: functional
[43] = glucagon-like peptide-1 release potency in STC-1, concentration-response, half-maximal inhibitory concentration in the STC-1 line (AID 1117345); format: functional, cell-based
[44] = Potency on glucagon-like peptide 1 release, dose-response in NCI-H716 cell line, half maximal inhibitory concentration (AID 1117344); format: functional, cell-based
[45] = rise of 2N DNA cells, HeLa – IC50, dose response (AID 1117349); format: functional, cell-based
[46] = rise of 4N DNA cells, HeLa – IC50, dose response (AID 1117351); format: functional, cell-based

Chain of Mitogen-activated protein kinase 10 (P53779 whole entry): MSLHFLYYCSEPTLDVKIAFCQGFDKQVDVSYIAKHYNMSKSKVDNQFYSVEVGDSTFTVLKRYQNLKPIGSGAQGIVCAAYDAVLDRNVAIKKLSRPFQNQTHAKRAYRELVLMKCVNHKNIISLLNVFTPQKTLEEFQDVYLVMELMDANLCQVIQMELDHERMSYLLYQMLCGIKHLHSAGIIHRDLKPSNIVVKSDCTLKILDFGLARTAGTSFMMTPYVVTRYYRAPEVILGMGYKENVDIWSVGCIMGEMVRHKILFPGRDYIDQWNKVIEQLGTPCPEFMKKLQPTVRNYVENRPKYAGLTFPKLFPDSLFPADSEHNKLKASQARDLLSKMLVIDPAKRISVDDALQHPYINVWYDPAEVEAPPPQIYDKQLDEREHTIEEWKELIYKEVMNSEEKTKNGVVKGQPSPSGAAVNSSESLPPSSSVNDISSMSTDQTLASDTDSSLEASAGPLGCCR

IC50 [1]: > 31 µM (not active)
Structure (SMILES): COC(=O)c1ccc(Cn2c(O)c(N=O)c3ccccc32)o1

Structure (SMILES): CCCCC(=O)NC(c1ccccc1OC)c1ccc2cccnc2c1O (stereo not given)
EC50 (cells [2]): > 350 µM (not active) | EC50 [3]: 435 nM (active) | AC50 [4]: 3.36 µM (active) | AC50 [5]: 8.16 µM (active) | AC50 [6]: 1.19 µM (active) | AC50 [7]: 4.38 µM (active) | AC50 [8]: 3.51 µM (active) | EC50 (cells [9]): 6.29 µM (active) | AC50 [10]: 20.1 µM (active) | AC50 [11]: 3.18 µM (active) | AC50 [12]: 2.22 µM (active) | AC50 [13]: 6.89 µM (active) | AC50 (Paired box protein Pax-8): 2.44 µM (active) | AC50 [14]: 7.55 µM (active) | AC50 [15]: 2.55 µM (active) | AC50 [16]: 4.87 µM (active) | AC50 [17]: 7.92 µM (active) | IC50 [18]: > 122 µM (inactive) | AC50 (INS1): 718 nM (active) | AC50 [19]: 16.3 µM (active) | AC50 [20]: 3.22 µM (active) | AC50 [21]: 10.7 µM (active) | EC50 [22]: 1.27 µM (active) | AC50 [23]: 5.77 µM (active)

IC50 [24]: > 100 µM (inactive) | IC50 [25]: > 100 µM (inactive) | IC50 [26]: 35.5 µM (inactive) | IC50 [27]: 485 nM (active)
Structure (SMILES): N#Cc1c(SCC(=O)Nc2nccs2)sc2c(O)cc(O)nc12

IC50 [28]: > 43.8 µM (not active) | IC50 [29]: > 43.8 µM (not active)
Structure (SMILES): O=C(O)c1ccc(NCc2cccc(Br)c2)cc1

EC50 [30]: > 50 µM (not active)
Structure (SMILES): C(=C\c1ccccc1)/CSc1nnc(-c2ccccc2)n1Cc1ccco1

IC50 [31]: 22 µM (inactive) | IC50 [32]: 21 µM (inactive)
Structure (SMILES): Fc1ccc2nc(-c3ccccc3)cc(NCCCN3CCCCC3)c2c1

Structure (SMILES): CCOC(=O)c1c(-c2ccc(C(C)(C)C)cc2)csc1NC(=O)CN1CCN(C)CC1
AC50 [33]: 16.4 µM (active) | AC50 [34]: 21.4 µM (active)

Structure (SMILES): COc1ccccc1-c1ccc([C@@H]2[C@@H](C#N)N[C@@H]2CO)cc1
AC50 [35]: 6.32 µM (active) | AC50 [36]: 3.02 µM (active) | AC50 [37]: 3.22 µM (active) | AC50 [38]: 907 nM (active) | AC50 [39]: 946 nM (active) | AC50 [40]: > 100 µM (inactive)

Structure (SMILES): C[C@H]1CCCCO[C@H](CN(C)S(=O)(=O)c2ccccc2)[C@@H](C)CN([C@@H](C)CO)C(=O)c2cc(NC(=O)Nc3ccc4c(c3)OCO4)ccc2O1
AC50 [41]: 2.22 µM (active)

Structure (SMILES): O=C(NCCN1CCC2(CC1)C(=O)NCN2Cc1ccccc1)c1ccc2ccccc2c1
IC50 (Phospholipase D1): 8.26 µM (active) | IC50 (Phospholipase D2): 890 nM (active)

Structure (SMILES): CC(COc1ccccc1)NN (stereo not given) [PHENOXYPROPAZINE]
IC50 [42]: > 33.3 µM (inactive) | IC50 [43]: 27.2 µM (inactive) | IC50 [44]: > 40 µM (inactive)

Structure (SMILES): CC[C@]1(O)C[C@H]2CN(CCc3c([nH]c4ccccc34)[C@@](C(=O)OC)(c3cc4c(cc3OC)N(C=O)[C@H]3[C@@](O)(C(=O)OC)[C@H](OC(C)=O)[C@]5(CC)C=CCN6CC[C@]43[C@@H]65)C2)C1 [VINCRISTINE]
IC50 [45]: 6.2 nM (active) | IC50 [46]: 5.9 nM (active)
